Measured values: patent publication US20250090515A1, “1-Deoxynojirimycin To Mitigate Hepatic Ischemia- Reperfusion” (KING FAISAL UNIVERSITY, priority 2023, published 2025)

Columns and labels:
Format in all cases: in vivo, Wistar male rats
H I/R-induced injury [1] = assay: Apoptotic markers (caspase 3, caspase 9) ELISA after hepatic ischemia-reperfusion; conditions: compared to H I/R animals
Protocol: (§1) Wistar male rats (age: 6-8 weeks; weight: 200-230 g) were obtained from Experimental Animal Research Centre, King Saud University, Riyadh, K S A. The animals were acclimatized with standard laboratory food and water ad libitum in ventilated cages system (12 h light/dark cycles, 20.3-23.1° C.) then kept throughout the whole experiment under the same conditions.
(§2) Rats were anesthetized with isoflurane with oxygen (2%, 0.5 L/h) throughout the whole surgery, under heat control and aseptic conditions. Animals' abdomen was shaved and sterilized, and a surgical incision (about 3 cm) from the pubic to the sternum was executed. The portal triad, comprising the hepatic artery, portal vein, and common bile duct, was clamped using a micro-vascular clamp for 60 min to prompt ischemia. Hepatic reperfusion was accompanied by releasing the micro-vascular clamp and permitted reperfusion for six hours. The sham-operated animals were subjected to all the procedures that occurred during H I/R, deprived of blood flow blockage.
(§3) 1-Deoxynojirimycin hydrochloride (1-DNJ) was purchased from Merck (Merck & Co., USA, product number D 9305). 1-DNJ was administered by gavage orally after being suspended in 1% carboxymethyl cellulose (CMC) solution. 1-DNJ dose (50 and 100 mg/kg) selection was based on previous studies. A total of 30 Wistar rats were haphazardly assigned into five groups (six rats/group). The sham group in which animals were given vehicle (1% CMC) orally for two weeks and subjected to sham steps. 1-DNJ+Sham group in which rats were administered 1-DNJ (100 mg/kg/day) for two weeks and then subjected to sham steps. Third group, the H I/R group, in which rats were administered 1% CMC for two weeks and then hepatic ischemia for 60 min followed by 6 hours reperfusion was implemented. Finally, 1-DNJ 50+H I/R and 1-DNJ 100+H I/R groups in which rats were pretreated with 1-DNJ (50, 100 mg/kg/day) respectively orally for two weeks, then subjected to hepatic I/R surgical procedure.
Once the reperfusion period was completed, animals' blood was obtained through the hearts, centrifuged at 4000×g for 15 min at 4° C., and stored at −20° C. to be utilized in the biochemical estimation of liver function tests, including ALT, AST, ALP, and LDH. Moreover, hepatic tissues were isolated, washed in cool PBS, and distributed in three portions. […]
Inflammation markers including TNF-α (ab46070), […], IL-6 (ab100772) NFκB (ab133112) and IL-10 (ab214566), ELISA kits were obtained from Abcam Co., (Eugene, OR, USA). […] These markers were measured according to the manufacturer's instructions using a microplate reader SpectraMax i3X (Molecular devices San Jose, CA, USA).

H I/R-induced injury [2] = assay: Histopathological examination (H&E, Suzuki grading) of ischemic liver
Protocol: as §1, §2
1-Deoxynojirimycin hydrochloride (1-DNJ) was purchased from Merck (Merck & Co., USA, product number D 9305). 1-DNJ was administered by gavage orally after being suspended in 1% carboxymethyl cellulose (CMC) solution. 1-DNJ dose (50 and 100 mg/kg) selection was based on previous studies. A total of 30 Wistar rats were haphazardly assigned into five groups (six rats/group). […]

H I/R-induced injury [3] = assay: Hepatic function biomarkers (serum ALT, AST, ALP, LDH) after hepatic ischemia-reperfusion; conditions: compared to H I/R animals
Protocol: as §1, §2, §3
(§4) Once the reperfusion period was completed, animals' blood was obtained through the hearts, centrifuged at 4000×g for 15 min at 4° C., and stored at −20° C. to be utilized in the biochemical estimation of liver function tests, including ALT, AST, ALP, and LDH. Moreover, hepatic tissues were isolated, washed in cool PBS, and distributed in three portions. The first part was homogenized with PBS, centrifuged at 10,000×g for 15 min at 4° C., and consumed to evaluate oxidative stress and ELISA biomarkers. The second portion was stored at −20° C. for subsequent qRT-PCR and western blot analysis. The third part was fixed with 10% formalin buffered saline to estimate the histopathological variations as well as the immunohistochemical manifestation.
(§5) One-way ANOVA followed by Tukey-Kramer as a post hoc test were executed for multiple comparisons between different experimental groups. p as a level of probability was set at 0.05, indicating the significance level. All statistical analyses were performed using Graph Pad software (version 8, CA, USA).
Rat Alanine Aminotransferase (ALT) ELISA kit (ab285264), Aspartate Aminotransferase (AST) ELISA kit (ab263883), and Alkaline Phosphatase (ALP) colorimetric assay kit (ab83369), Lactate Dehydrogenase (LDH) colorimetric assay kit (ab102526) were obtained from Abcam (Boston, MA, USA) and utilized following the manufacturer's instructions.

H I/R-induced injury [4] = assay: Hepatic oxidative stress biomarkers in hepatic tissue homogenate after hepatic ischemia-reperfusion; conditions: compared to H I/R animals
Protocol: as §1, §2, §3, §4, §5
Oxidative stress-related biomarkers, including antioxidant and lipid peroxidation enzymes such as CAT, SOD, GST, GSH, MDA, and NO contents, were monitored in the hepatic tissue homogenate. Malondialdehyde (MDA; ab238537), glutathione (GSH, ab65322), glutathione-s-transferase (GST, ab65326), nitric oxide (NO, ab272517) assay kits were purchased from Abeam Inc. (Cambridge, UK). Superoxide dismutase (SOD; MBS036924) and catalase (MBS726781) ELISA kits were obtained from My BioSource (San Diego, CA, USA). All the procedures were executed in accordance with the manufacturer's directions.

[5] = 1-DNJ 50 mg/kg/day orally for 2 weeks before H I/R
[6] = 1-DNJ 100 mg/kg/day orally for 2 weeks before H I/R

Cl.OC[C@H]1NC[C@H](O)[C@@H](O)[C@@H]1O [1-DNJ, 1-Deoxynojirimycin hydrochloride] was tested, and the “percentage reduction in caspase 3” value (H I/R-induced injury [1]; [5]) was 27.62%, the “percentage reduction in caspase 9” value (H I/R-induced injury [1]; [5]) was 20.09% and the “percentage reduction in caspase 3” value (H I/R-induced injury [1]; [6]) was 41.23%. The “percentage reduction in caspase 9” value (H I/R-induced injury [1]; [6]) was 24.86%, the “histopathological changes by Suzuki scores (congestion, vacuolation, necrosis)” value (H I/R-induced injury [2]; 1-DNJ preconditioned animals (50 and 100 mg/kg/day orally, 2 weeks), related to H I/R animals) was “substantial reduction in hepatic congestion and hepatocellular vacuolation and necrosis” and the “histopathological findings (H&E sections)” value (H I/R-induced injury [2]; 1-DNJ pretreated groups (50 and 100 mg/kg/day orally, 2 weeks) before H I/R) was “re-established hepatic parenchyma, less hepatocellular necrosis, fewer congested hepatic sinusoids, and portal vasculatures with slight vacuolation”. For the same molecule, the “percentage reduction in ALP” value (H I/R-induced injury [3]; [5]) was 29.75%, the “percentage reduction in ALT” value (H I/R-induced injury [3]; [5]) was 22.26% and the “percentage reduction in AST” value (H I/R-induced injury [3]; [5]) was 26.96%. For the same molecule, the “percentage reduction in LDH” value (H I/R-induced injury [3]; [5]) was 24.39%, the “percentage reduction in ALP” value (H I/R-induced injury [3]; [6]) was 44.53% and the “percentage reduction in ALT” value (H I/R-induced injury [3]; [6]) was 43.11%. The “percentage reduction in AST” value (H I/R-induced injury [3]; [6]) was 41.65%, the “percentage reduction in LDH” value (H I/R-induced injury [3]; [6]) was 48.63% and the “percentage elevation in CAT” value (H I/R-induced injury [4]; [5]) was 114.24%. The “percentage elevation in GSH” value (H I/R-induced injury [4]; [5]) was 130.82%, the “percentage elevation in GST” value (H I/R-induced injury [4]; [5]) was 49.42% and the “percentage elevation in SOD” value (H I/R-induced injury [4]; [5]) was 60.80%. The “percentage reduction in MDA” value (H I/R-induced injury [4]; [5]) was 24.18%, the “percentage reduction in NO” value (H I/R-induced injury [4]; [5]) was 40.77% and the “percentage elevation in CAT” value (H I/R-induced injury [4]; [6]) was 161.09%. The “percentage elevation in GSH” value (H I/R-induced injury [4]; [6]) was 194.64%, the “percentage elevation in GST” value (H I/R-induced injury [4]; [6]) was 99.02% and the “percentage elevation in SOD” value (H I/R-induced injury [4]; [6]) was 89.51%. The “percentage reduction in MDA” value (H I/R-induced injury [4]; [6]) was 30.71% and the “percentage reduction in NO” value (H I/R-induced injury [4]; [6]) was 55.05%.
